# According to patent US20190292189A1, “LIM KINASE INHIBITORS” (VIRONGY, LLC, priority 2016, published 2019):
# Test system: p-cofilin in PC-3 prostate cancer cell lines
# Assay: Cofilin phosphorylation Western blot in PC-3 cells stimulated by HGF
# Format: cell-based
# Conditions: HGF-stimulated PC-3 cells; 50 nM
# Protocol: PC3 cells were cultured at a density of 0.5×10^6 cells/mL in 60 mm culture dishes in 10% FBS RPMI1640 media. Then, the cells were treated with DMSO and the indicated concentration of Limk inhibitors. After incubating for 24 h, the cells were rinsed with ice-cold PBS twice and collected by spinning down at 4° C. in 10,000 rpm for 5 min Cellular lysates were prepared by suspending cells in SDS sample buffer, 120 mmol/L Tris, 4% SDS, 20% glycerol, 0.1 mg/mL bromophenol blue, and 100 mmol/L DTT (pH 6.8). After brief sonication, the lysates were heated at 95° C. for 5 minutes. The cell lysates were separated by 12% SDS-PAGE and transferred to Immobilon-P membranes (Millipore Corp) Immunostaining was done using antibodies specific for phospho-Cofilin (Cell Signaling, #3313) and β-Actin (GeneScript, #A00702) antibodies and the corresponding second antibodies for whole immunoglobulins from mouse or rabbit (Amersham Biosciences). Immunoreactive proteins were detected by chemoluminescence using the Pierce ECL Western Blotting Substrate (Thermo Scientific). We quantified the actual levels of proteins by using the Multigauge ver 3.0 software (Fujifilm). The gels were stained with Coomassie Brilliant Blue R-250 (0.25%) for 1 hour and then destained (all solutions from Bio-Rad) to check the loading amount of protein samples on the gels.
smiles,measurement,value
"Cc1c[nH]c2ncnc(-c3ccc(NC(=O)N(CCO)c4ccccc4)cc3)c12 [Compound 18b, 1-(2-Hydroxyethyl)-3-(4-(5-methyl-7H-pyrrolo[2,3-d]pyrimidin-4-yl)phenyl)-1-phenylurea]",inhibition of cofilin phosphorylation in PC-3 cells (Western blot),significant inhibition
